Data on four molecules can be found in patent publication US20230087560A1, “HYDROFLUORETHERS AND METHODS OF USING SAME” (3M INNOVATIVE PROPERTIES COMPANY, priority 2020, published 2023).

The nature of data set [1]: Chemical stability in the presence of TMEDA. The format is physicochemical. As to conditions: 50° C. As for the experimental part:
(§1) Chemical Stability: Stability of compounds in the presence of the bases triethylamine (TEA), 1,4-diazabicyclo[2.2.2]octane (DABCO), and N,N,N,N-tetramethylethylene diamine (TMEDA) was tested as follows. To a 20 mL vial equipped with a magnetic stir bar were added the exemplary and comparative materials in the following starting amounts: Example 1-0.30 g (1.0 mmol), CE4-0.30 g (1.0 mmol) and CE5-0.30 g (1.0 mmol). FC-770 (0.40 g, 1.0 mmol) was added as an internal standard since it is known to be stable in the presence of the base materials tested herein. To this mixture was added one of: triethylamine (0.10 g, 1.0 mmol), DABCO (0.10 g, 0.89 mmol), or TMEDA (0.12 g, 1.0 mmol). The resultant mixture was stirred at 50° C. for 24 hours. GC-FID analysis was performed at specific time intervals to monitor the remaining hydrofluoroether and comparative materials present in the mixture.

Data set [2] in a line: Chemical stability in the presence of NMP, fluoride ion content. The format is physicochemical. The settings on record: 50° C., 144 h, aqueous layer. How it is done:
Stability of compounds in the presence of N-methylpyrrolidinone (NMP) was tested as follows. To a 20 mL glass vial equipped with a magnetic stir bar was added 0.66 g of NMP (6.7 mmol) and one of the following exemplary or comparative materials in the following starting amounts: Example 1-2.0 g (6.7 mmol); CE4-2.0 g (6.7 mmol); CE5-2.0 g (6.7 mmol), or CE6-2.40 g (6.7 mmol). This mixture was then stirred at 50° C. for 144 h. To the resultant mixture was added H2O (6.0 mL) and the aqueous layer was evaluated for fluoride ion content. The samples were analyzed using an Orion EA 940 meter with an Orion 9609BNWB Fluoride-ISE. Orion Ionplus Fluoride standards were used to calibrate the meter.

Data set [3] is described as follows: Chemical stability in the presence of triethylamine (TEA). The format is physicochemical. The settings on record: 50° C. How it is done:
as §1

Data set [4] is described as follows: Chemical stability in the presence of DABCO. The data set is classed as physicochemical. As to conditions: 50° C. How it is done: as §1
The subject of a further data set is rats. In words: Toxicity screening study in rats, 4-hour inhalation. The data set is classed as in vivo. As for the experimental part: To a 3-neck flask equipped with a magnetic stir bar and reflux condenser were charged 1,1,1,3,3,4,4,4-octafluoro-2-(trifluoromethyl)butan-2-olate cesium salt (300 g of a 33 wt % solution in diglyme, 237 mmol). The resultant reaction mixture was heated to 70° C. followed by the dropwise addition of iodomethane (17 mL, 273 mmol). The reaction mixture was allowed to stir overnight at the same temperature. After cooling to room temperature, H2O (400 mL) was added and the mixture was transferred to a 2 L separatory funnel. The bottom, fluorochemical layer was then separated and analyzed by GC-FID indicating a 58% yield of the title compound. Distillation afforded the desired 1,1,1,2,2,4,4,4-octafluoro-3-methoxy-3-(trifluoromethyl)butane (77° C., 740 mm/Hg, 32.1 g, 45% isolated yield) as a colorless liquid. The identity of the purified composition was confirmed by GC-MS analysis.

Data set [5] in a line: Specific heat capacity (Cp) by DSC. The data set is classed as physicochemical. As for the experimental part:
Specific heat capacity (Cp): Cp was measured using a TA Instruments Model Q2000 DSC (Differential Scanning Calorimeter) instrument. A sapphire standard was run before and after the samples and the average of the measured sapphire heat capacity vs. the theoretical heat capacity was used to correct the measured heat capacity of the sample.
On the technique in general: Differential scanning calorimetry records heat flow against a reference as temperature is scanned.

Data set [6] in a line: Kinematic viscosity, Schott-Ubbelohde viscometers. The data set is classed as physicochemical. How it is done:
Kinematic viscosity: Kinematic viscosity was measured using Schott-Ubbelohde Viscometers (glass capillary viscometers). The viscometers were timed using a viscometer timer available under the trade designation AVS-350 from SI Analytics, College Station, Tex., USA. The viscometer measurement stand and glass viscometer were immersed in a temperature-controlled liquid bath filled with NOVEC 7500 fluid available from 3M Company, Maplewood, Minn., USA. The temperature-controlled liquid bath (available from Lawler Manufacturing Corporation, Edison, N.J., USA), was fitted with a copper tubing coil for liquid nitrogen cooling with fine temperature control provided by the bath's electronic temperature control heater. The fluid was mechanically stirred to provide uniform […] temperature in the bath. The bath controlled the temperature within +0.1° C., measured by a built-in RTD temperature sensor. The sample liquid was added to the viscometer between the two fill lines etched on the viscometer. The viscometer timer automatically pumped the sample fluid above the upper timing mark, then released the fluid and measured the efflux times between the upper and lower timing marks. The fluid meniscus was detected by optical sensors as it passed each timing mark. The sample was drawn up and measured repeatedly; results are provided as averages of multiple determinations. The glass viscometers were calibrated using certified kinematic viscosity standard fluids available from Cannon Instrument Company, State College, Pa., USA, to obtain a calibration constant (cSt/sec) for each viscometer. Kinematic viscosity in centiStokes (cSt) was calculated as the average efflux time (sec) times the viscometer calibration constant (cSt/sec).

Data set [7] can be described thus: Pour point, determined visually. The data set is classed as physicochemical. How it is done: One to two milliliters of the sample were placed in a vial and cooled in a bath until it solidified. The sample was then allowed to warm slowly in the bath and observed every 3-5° C.

Structures are written as SMILES.

For the molecule `COC(F)(C(F)(F)F)C(F)(C(F)(F)F)C(F)(F)F` (centres unmarked) [CE4, 1,1,1,2,3,4,4,4-octafluoro-2-methoxy-3-(trifluoromethyl)butane], the “Mole % of Starting Material” value was found to be 100 Mole % in data set [1] (0 hr); 53.3 Mole % in data set [1] (16 hr); 53.3 Mole % in data set [1] (24 hr); 100 Mole % in data set [3] (0 hr); 100 Mole % in data set [3] (16 hr); 96.7 Mole % in data set [3] (24 hr). The “Mole % of Starting Material” value was 100 Mole % in data set [4] (0 hr), 66.7 Mole % in data set [4] (16 hr) and 56.7 Mole % in data set [4] (24 hr). In addition, the Fluoride ion content in data set [2] amounted to 388.8 ppm.
Consider `COC(F)(F)C(F)(C(F)(F)F)C(F)(F)C(F)(F)F` (centres unmarked) [CE5, 2-(difluoro(methoxy)methyl)-1,1,1,2,3,3,4,4,4-nonafluorobutane], for which the “Mole % of Starting Material” value in data set [1] (0 hr) was determined as 100 Mole %; in data set [1] (16 hr), 36.7 Mole %; in data set [1] (24 hr), 36.7 Mole %; in data set [3] (0 hr), 100 Mole %; in data set [3] (16 hr) it was 100 Mole %; in data set [3] (24 hr) it was 86.7 Mole %. The “Mole % of Starting Material” value is 100 Mole % in data set [4] (0 hr), 46.7 Mole % in data set [4] (16 hr) and 43.3 Mole % in data set [4] (24 hr). The Fluoride ion content in data set [2] was 657.8 ppm.
On to `COC(C(F)(F)F)(C(F)(F)F)C(F)(F)C(F)(F)F` [Example 1, 1,1,1,2,2,4,4,4-octafluoro-3-methoxy-3-(trifluoromethyl)butane], for which the “Mole % of Starting Material” value in data set [1] (0 hr), in data set [1] (16 hr), in data set [1] (24 hr), in data set [3] (0 hr), in data set [3] (16 hr) and in data set [3] (24 hr) was 100 Mole % each time. Besides, the “Mole % of Starting Material” value in data set [4] (0 hr), in data set [4] (16 hr) and in data set [4] (24 hr) was 100 Mole % each time. Moreover, the Fluoride ion content in data set [2] is listed as 15.1 ppm. The “4-hour inhalation LC50” value in the data set on rats was > 1,840 ppm.
In the case of `COC(C(F)(F)C(F)(F)F)(C(F)(F)C(F)(F)F)C(F)(F)C(F)(F)F` [Example 3, 1,1,1,2,2,4,4,5,5,5-decafluoro-3-methoxy-3-(1,1,2,2,2-pentafluoroethyl)pentane], in data set [5], the “Specific Heat Capacity” value is 1.16 J/g · K. In addition, the “Kinematic Viscosity” value is reported as 0.97 cSt in data set [6] (0.0 ° C.); 1.65 cSt in data set [6] (−10.0 ° C.); 2.15 cSt in data set [6] (−20.0 ° C.); 2.88 cSt in data set [6] (−30.0 ° C.); 5.19 cSt in data set [6] (−40.0 ° C.). For the same molecule, the pour point in data set [7] was −62 °C.
